Measurements reported in patent US11066414B2, “Cot modulators and methods of use thereof” (Gilead Sciences, Inc., priority 2015, dated 2021).

These molecules were tested against Human Cot (Homo sapiens (Human), UniProt P41279) (assay: High Throughput Cot Biochemical Assay). Conditions: IC50 HTRF, Cot HTRF (TR-FRET KinEASE) biochemical assay, 400 μM ATP.
Sequence of Human Cot (P41279 30-397): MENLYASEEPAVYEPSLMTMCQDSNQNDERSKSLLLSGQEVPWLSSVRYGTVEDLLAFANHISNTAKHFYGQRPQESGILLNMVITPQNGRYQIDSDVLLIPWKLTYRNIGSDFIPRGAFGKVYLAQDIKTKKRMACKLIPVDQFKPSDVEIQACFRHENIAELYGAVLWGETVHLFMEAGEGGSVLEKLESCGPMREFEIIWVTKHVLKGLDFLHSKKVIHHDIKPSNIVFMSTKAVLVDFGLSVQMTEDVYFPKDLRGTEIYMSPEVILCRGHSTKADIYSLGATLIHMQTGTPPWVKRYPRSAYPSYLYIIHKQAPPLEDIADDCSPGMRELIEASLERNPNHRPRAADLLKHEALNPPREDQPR
In the case of `CC(C)(CNc1c(C#N)cnc2c(C#N)cc(N[C@H](c3cn(C4(C(F)F)CC4)nn3)c3ccc(F)c4ncccc34)cc12)C(F)(F)F` [Example 815, (S)-6-(((1-{1-(difluoromethyl)-cyclopropyl)-1H-1,2,3-triazol-4-yl)(8-fluoroquinolin-5-yl)methyl)amino)-4-((3,3,3-trifluoro-2,2-dimethylpropyl)amino)quinoline-3,8-dicarbonitrile], the IC50 is reported as 3 nM.
For `C[C@@H](CF)n1cc([C@@H](Nc2cc(Cl)c3ncc(C#N)c(NCC(C)(C)C)c3c2)c2cccc3ncccc23)nn1` [Example 803, 8-chloro-6-(((S)-(1-((S)-1-fluoropropan-2-yl)-1H-1,2,3-triazol-4-yl)(quinolin-5-yl)methyl)amino)-4-(neopentylamino)quinoline-3-carbonitrile], the IC50 was 7 nM.
With `Cn1ccc2c([C@H](Nc3cc(C#N)c4ncc(C#N)c(NCC(C)(C)C)c4c3)c3cn(C4(C(F)F)CC4)nn3)ccnc21` [Example 873, (S)-6-(((1-(1-(difluoromethyl)cyclopropyl)-1H-1,2,3-triazol-4-yl)(1-methyl-1H-pyrrolo[2,3-b]pyridin-4-yl)methyl)amino)-4-(neopentylamino)quinoline-3,8-dicarbonitrile] the IC50 was 5 nM.
Work on `Cc1nc(F)ccc1[C@H](Nc1cc(Cl)c2ncc(C#N)c(NCC(C)(C)C(F)(F)F)c2c1)c1nnn(C2CC2)c1F` [Example 958, (S)-8-chloro-6-(((1-cyclopropyl-5-fluoro-1H-1,2,3-triazol-4-yl)(6-fluoro-2-methylpyridin-3-yl)methyl)amino)-4-((3,3,3-trifluoro-2,2-dimethylpropyl)amino)quinoline-3-carbonitrile] yielded an IC50 of 2 nM.
Molecule `COc1c([C@@H](Nc2cc(C#N)c3ncc(C#N)c(NCC(C)(C)C)c3c2)c2ccc(F)nc2C)nnn1C1CC1` [Example 859, (S)-6-(((1-cyclopropyl-5-methoxy-1H-1,2,3-triazol-4-yl)(6-fluoro-2-methylpyridin-3-yl)methyl)amino)-4-(neopentylamino)quinoline-3,8-dicarbonitrile] has an IC50 of 2 nM.

Same assay, conditions: IC50 HTRF, Cot HTRF (TR-FRET) biochemical assay
For `N#Cc1cnc2c(Cl)cc(NC(c3cccnc3)c3cn(C4CCN(C(=O)OCc5ccccc5)CC4)nn3)cc2c1Nc1ccc(F)c(Cl)c1` (stereo not shown) [Example 404, benzyl 4-(4-(((8-chloro-4-((3-chloro-4-fluorophenyl)amino)-3-cyanoquinolin-6-yl)amino)(pyridin-3-yl)methyl)-1H-1,2,3-triazol-1-yl)piperidine-1-carboxylate], the IC50 was 232 nM.
`CCN1CCc2c([C@H](Nc3cc(Cl)c4ncc(C#N)c(Nc5ccc(F)c(Cl)c5)c4c3)c3c[nH]nn3)csc2C1` [Example 270, (S)-8-chloro-4-((3-chloro-4-fluoro-phenyl)amino)-6-(((6-ethyl-4,5,6,7-tetrahydrothieno[2,3-c]pyridin-3-yl)(1H-1,2,3-triazol-4-yl)methyl)-amino)quinoline-3-carbonitrile] showed an IC50 of 4 nM.
Work on `CC(C)(C)CNc1c(C#N)cnc2c(C#N)cc(N[C@H](c3cn(C4CC4)nn3)c3cccc4ncccc34)cc12` [Example 467, (S)-6-(((1-cyclopropyl-1H-1,2,3-triazol-4-yl)(quinolin-5-yl)methyl)amino)-4-(neopentylamino)quinoline-3,8-dicarbonitrile] yielded an IC50 of 2 nM.
Work on `Cn1ccc2c([C@H](Nc3cc(Cl)c4ncc(C#N)c(NCC(C)(C)C(F)(F)F)c4c3)c3cn(C45CC(C4)C5)nn3)cccc2c1=O` [Example 785, (S)-6-(((1-(bicyclo[1.1.1]pentan-1-yl)-1H-1,2,3-triazol-4-yl)(2-methyl-1-oxo-1,2-dihydroisoquinolin-5-yl)methyl)amino)-8-chloro-4-((3,3,3-trifluoro-2,2-dimethylpropyl)amino)quinoline-3-carbonitrile] yielded an IC50 of 2 nM.
Work on `Cc1nc(F)ccc1[C@H](Nc1cc(C#N)c2ncc(C#N)c(NCC(C)(C)C)c2c1)c1cn(C23CC(C2)C3)nn1` [Example 649, (S)-6-(((1-(bicyclo[1.1.1]pentan-1-yl)-1H-1,2,3-triazol-4-yl)(6-fluoro-2-methylpyridin-3-yl)methyl)amino)-4-(neopentylamino)quinoline-3,8-dicarbonitrile] yielded an IC50 of 2 nM.
For `CCN1CCC(n2cc([C@@H](Nc3cc(Cl)c4ncc(C#N)c(Nc5ccc(F)c(Cl)c5)c4c3)c3ccc(C(F)(F)F)s3)nn2)CC1` [Example 365, (R)-8-chloro-4-((3-chloro-4-fluorophenyl)amino)-6-(((1-(1-ethylpiperidin-4-yl)-1H-1,2,3-triazol-4-yl)(5-(trifluoromethyl)thiophen-2-yl)methyl)amino)quinoline-3-carbonitrile], the IC50 was 38 nM.
`CC(C)(C)OC(=O)N1CCC(n2cc([C@@H](Nc3cc(Cl)c4ncc(C#N)c(Nc5ccc(F)c(Cl)c5)c4c3)c3cncs3)nn2)CC1` [Example 384, tert-butyl (R)-4-(4-(((8-chloro-4-((3-chloro-4-fluorophenyl)amino)-3-cyanoquinolin-6-yl)amino)(thiazol-5-yl)methyl)-1H-1,2,3-triazol-1-yl)piperidine-1-carboxylate] showed an IC50 of 153 nM.
Molecule `N#Cc1csc([C@H](Nc2cc(Cl)c3ncc(C#N)c(Nc4ccc(F)c(Cl)c4)c3c2)c2cn(CCO)nn2)c1` [Example 333, (R)-8-chloro-4-((3-chloro-4-fluorophenyl)amino)-6-(((4-cyanothiophen-2-yl)(1-(2-hydroxyethyl)-1H-1,2,3-triazol-4-yl)methyl)amino)quinoline-3-carbonitrile] has an IC50 of 3 nM.
`CC(C)n1cc([C@@H](Nc2cc(Cl)c3ncc(C#N)c(Nc4ccc(F)c(Cl)c4)c3c2)c2cncn2C)nn1` [Example 311, (S)-8-chloro-4-((3-chloro-4-fluorophenyl)amino)-6-(((1-isopropyl-1H-1,2,3-triazol-4-yl)(1-methyl-1H-imidazol-5-yl)methyl)amino)quinoline-3-carbonitrile] showed an IC50 of 30 nM.
With `N#Cc1cnc2c(Cl)cc(N[C@H](c3cn(C4COC4)nn3)c3cc(Br)cnc3Cl)cc2c1Nc1ccc(F)c(Cl)c1` [Example 320, (S)-6-(((5-bromo-2-chloropyridin-3-yl)(1-(oxetan-3-yl)-1H-1,2,3-triazol-4-yl)methyl)amino)-8-chloro-4-((3-chloro-4-fluorophenyl)amino)quinoline-3-carbonitrile] the IC50 was 60 nM.
Molecule `CC(C)(C)CNc1c(C#N)cnc2c(C#N)cc(N[C@H](c3cn(C4(C(F)F)CC4)nn3)c3cccc4ncsc34)cc12` [Example 424, (S)-6-((benzo[d]thiazol-7-yl(1-(1-(difluoromethyl)cyclopropyl)-1H-1,2,3-triazol-4-yl)methyl)amino)-4-(neopentylamino)quinoline-3,8-dicarbonitrile] has an IC50 of 2 nM.
With `CC1(n2cc([C@@H](Nc3cc(Cl)c4ncc(C#N)c(NCC(C)(C)C(F)(F)F)c4c3)c3cccc4ncccc34)nn2)CC1` [Example 797, (S)-8-chloro-6-(((1-(1-methylcyclopropyl)-1H-1,2,3-triazol-4-yl)(quinolin-5-yl)methyl)amino)-4-((3,3,3-trifluoro-2,2-dimethylpropyl)amino)quinoline-3-carbonitrile] the IC50 was 3 nM.
`CCc1ncccc1[C@H](Nc1cc(Cl)c2ncc(C#N)c(NCC(C)(C)C)c2c1)c1cn(C2(C(F)F)CC2)nn1` [Example 604, (S)-8-chloro-6-(((1-(1-(difluoromethyl)cyclo-propyl)-1H-1,2,3-triazol-4-yl)(2-ethylpyridin-3-yl)methyl)amino)-4-(neopentylamino)-quinoline-3-carbonitrile] gave an IC50 of 3 nM.
`Cn1ncc2c([C@H](Nc3cc(Cl)c4ncc(C#N)c(NCC(C)(C)C)c4c3)c3cn(C4CC4)nn3)cccc21` [Example 423, (S)-8-chloro-6-(((1-cyclopropyl-1H-1,2,3-triazol-4-yl)(1-methyl-1H-indazol-4-yl)methyl)amino)-4-(neopentylamino)-quinoline-3-carbonitrile] gave an IC50 of 3 nM.
With `N#Cc1cnc2c(Cl)cc(N[C@H](c3cn(C4CCNCC4)nn3)c3cccs3)cc2c1Nc1ccc(F)c(Cl)c1` [Example 388, (R)-8-chloro-4-((3-chloro-4-fluoro-phenyl)amino)-6-(((1-(piperidin-4-yl)-1H-1,2,3-triazol-4-yl)(thiophen-2-yl)methyl)amino)quinoline-3-carbonitrile] the IC50 was 10 nM.
In the case of `CC(C)(C)CNc1c(C#N)cnc2c(Cl)cc(N[C@H](c3cn(C4(CO)CC4)nn3)c3cccc4ncsc34)cc12` [Example 458, (S)-6-((benzo[d]thiazol-7-yl(1-(1-(hydroxymethyl)cyclopropyl)-1H-1,2,3-triazol-4-yl)methyl)amino)-8-chloro-4-(neopentylamino)quinoline-3-carbonitrile], the IC50 is reported as 4 nM.
With `[2H]C([2H])(Nc1c(C#N)cnc2c(Cl)cc(N[C@@]([2H])(c3ccc(F)nc3)c3cn(C4CC4)nn3)cc12)C(C)(C)C` [Example 112, (S)-8-chloro-6-(((1-cyclopropyl-1H-1,2,3-triazol-4-yl)(6-fluoropyridin-3-yl)methyl-d)amino)-4-((2,2-dimethylpropyl-1,1-d2)amino)quinoline-3-carbonitrile] the IC50 was 2 nM.
`Cn1cc(C(Nc2cc(Cl)c3ncc(C#N)c(Nc4ccc(F)c(Cl)c4)c3c2)c2cn(C3CCNCC3)nn2)nn1` (stereo not shown) [Example 397, 8-chloro-4-((3-chloro-4-fluoro-phenyl)amino)-6-(((1-methyl-1H-1,2,3-triazol-4-yl)(1-(piperidin-4-yl)-1H-1,2,3-triazol-4-yl)methyl)amino)-quinoline-3-carbonitrile] was tested, and the IC50 was 46 nM.

Same assay, conditions: read-out: IC50 HTRF; Cot HTRF (TR-FRET KinEASE) biochemical assay, 400 μM ATP
`Cc1nc(F)ccc1[C@H](Nc1cc(C#N)c2ncc(C#N)c(NCC(C)(C)C)c2c1)c1nnn(C2(C3CC3)CC2)c1F` [Example 865] showed an IC50 of 4 nM.

Same assay, conditions: read-out: IC50 HTRF; Cot HTRF (TR-FRET) biochemical assay
Molecule `CC(C)n1cc([C@@H](Nc2cc(Cl)c3ncc(C#N)c(Nc4ccc(F)c(Cl)c4)c3c2)c2cc(Br)cnc2Cl)nn1` [Example 293, (S)-6-(((5-brorno-2-chloropyridin-3-yl)(1-isopropyl-1H-1,2,3-triazol-4-yl)methyl)amino)-8-chloro-4-((3-chloro-4-fluorophenyl)-amino)quinoline-3-carbonitrile] has an IC50 of 32 nM.
